Laboratory results from patent US20260116920A1, “HUMAN TRANSFERRIN RECEPTOR BINDING PEPTIDE” (PEPTIDREAM INC., priority 2021, published 2026).
Positions of bridges follow the written chain, without caps; N, C: chain ends. Non-standard residues stand in square brackets, D forms with d. Residues, ends and D or L forms follow the SMILES beside them. *: point of attachment. Trp(1-CH2COOH) = N[C@@H](Cc1cn(CC(=O)O)c2ccccc12)C(=O)O; Phe(3-COOH) = N[C@@H](Cc1cccc(C(=O)O)c1)C(=O)O; NH(CH2CH2O)8Me = COCCOCCOCCOCCOCCOCCOCCOCCN*; NMePhe(3-Cl) = CN[C@@H](Cc1cccc(Cl)c1)C(=O)O; 3Pal(6-NH2) = Nc1ccc(C[C@H](N)C(=O)O)cn1; NMeY = CN[C@@H](Cc1ccc(O)cc1)C(=O)O; 3Pal = N[C@@H](Cc1cccnc1)C(=O)O; PEG4 = NCCOCCOCCOCCOCCC(=O)O; Carboxymethyl = O=C(O)C*

These compounds were tested against T1, human transferrin receptor (hTfR) (Homo sapiens, UniProt P02786) (assay: Evaluation of molecular interaction between transferrin receptor (hTfR) and peptide using surface plasmon resonance (SPR)). Conditions: KD class for binding to hTfR by SPR; peptide with the linker shown in the same line; 'low signal indicates no activity'; read-out: SPR.
T1 construct: made in house
T1 sequence (P02786 89-760 limits assumed): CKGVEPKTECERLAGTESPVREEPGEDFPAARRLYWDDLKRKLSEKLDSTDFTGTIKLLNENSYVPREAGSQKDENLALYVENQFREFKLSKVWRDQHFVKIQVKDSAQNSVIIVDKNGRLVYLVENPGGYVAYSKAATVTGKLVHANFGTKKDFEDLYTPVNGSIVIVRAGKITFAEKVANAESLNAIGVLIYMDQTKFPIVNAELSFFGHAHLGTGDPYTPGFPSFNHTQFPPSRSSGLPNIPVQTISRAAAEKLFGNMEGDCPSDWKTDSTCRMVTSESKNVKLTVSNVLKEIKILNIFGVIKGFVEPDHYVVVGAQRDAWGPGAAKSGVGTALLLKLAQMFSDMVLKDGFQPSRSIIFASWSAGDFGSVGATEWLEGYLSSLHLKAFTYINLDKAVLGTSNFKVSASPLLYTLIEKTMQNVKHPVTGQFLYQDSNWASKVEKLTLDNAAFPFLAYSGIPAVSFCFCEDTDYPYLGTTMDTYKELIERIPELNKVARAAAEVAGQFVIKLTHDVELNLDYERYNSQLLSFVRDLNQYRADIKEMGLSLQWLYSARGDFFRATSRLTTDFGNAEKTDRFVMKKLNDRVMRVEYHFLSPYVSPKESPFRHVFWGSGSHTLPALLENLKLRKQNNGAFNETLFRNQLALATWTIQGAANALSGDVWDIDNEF
Type: binding
Description: Evaluation Test of Molecular Interaction Between Transferrin Receptor (hTfR) and Peptide Using Surface Plasmon Resonance (SPR)
The intermolecular interactions of various synthesized peptides with the transferrin receptor (hTfR) by surface plasmon resonance (SPR) of the peptides were tested by the methods described below. Specific test methods are shown below.
NTA sensor chip (Global Life Sciences Technologies Japan K.K.) was inserted into BiacoreT200 (Global Life Sciences Technologies Japan K.K.), then the priming operation was performed three times by using running buffer containing: 10 mM HEPES pH 8.0 (Nacalai Tesque, Inc.), 150 mM NaCl (Nacalai Tesque, Inc.), 0.05% Tween 20 (Nacalai Tesque, Inc.), 0.1% BSA (SIGMA-ALDRICH) and 1.0% DMSO (FUJIFILM Wako Pure Chemical Corporation), and equilibrated at a flow rate of 30 μL/min. 350 mM EDTA solution was reacted at a flow rate of 10 μL/min for 60 seconds, 0.5 mM […] solution (Kishida Chemical Co., Ltd.) was reacted at a flow rate of 10 μL/min for 60 seconds, and then the NTA sensor chip was washed with 3 mM EDTA solution (Nacalai Tesque, Inc.) at a flow rate of 10 μL/min for 60 seconds. After mixing 50 μL each of 60 mM EDC solution (Global Life Science Technologies Japan K.K.) and 650 mM NHS solution (Global Life Science Technologies Japan K.K.), the reaction was carried out at a flow rate of 10 μL/min for 420 seconds. 150 μL of 0.5 μM hTfR dimer solution was prepared by dilution with running buffer and reacted at a flow rate of 10 μL/min for 300 seconds to immobilize hTfR on the NTA sensor chip. For the human transferrin receptor (hTfR), recombinant hTfR described in Example 2 of WO2018/124121 was used. After immobilization, capping was performed by reacting with 1.0 M ethanolamine solution (Global Life Sciences Technologies Japan K.K.) at a flow rate of 10 μL/min for 420 seconds. Peptide lysate prepared in DMSO solution to 10 mM was diluted with running buffer to be a final concentration of 10 μM peptide lysate, then peptide solutions of 100 nM, 50 nM, 25 nM, 10 nM, and 5 nM were prepared. Using the above samples, the kinetics of the peptide against hTfR was obtained by SPR measurement.
The kinetic evaluation model was single-cycle kinetics, and curve fitting was performed using Biacore T200 Evaluation Software Version 3.0 (Global Life Science Technologies Japan K.K.). The binding of the peptide to hTfR was evaluated by performing curve fitting on the obtained sensorgram by least squares method and obtaining the KD value.

Kd [nM]	Compound
1 to 100	CC[C@H](C)[C@@H]1NC(=O)[C@H](Cc2ccc(OC)cc2)NC(=O)[C@H](Cc2ccc(N)nc2)NC(=O)[C@H](CC(N)=O)NC(=O)[C@H](Cc2cn(CC(=O)O)c3ccccc23)NC(=O)[C@H](C(C)C)NC(=O)[C@H](Cc2cccc(Cl)c2)N(C)C(=O)[C@H](C(C)C)NC(=O)[C@H](C)NC(=O)CSC[C@@H](C(=O)NCCOCCOCCOCCOCCC(N)=O)NC(=O)[C@H](Cc2ccc(O)cc2)N(C)C(=O)[C@H](Cc2ccccc2)NC(=O)[C@H](CCCNC(=N)N)NC(=O)[C@H](CCCNC(=N)N)NC(=O)[C@H]([C@@H](C)CC)NC1=O [894_0332] ({CH2CO}-AV[NMePhe(3-Cl)]V[Trp(1-CH2COOH)]N[3Pal(6-NH2)]Y(Me)IIRRF[NMeY]C[PEG4]-NH2; thioether N-15)
1 to 100	CC[C@H](C)[C@@H]1NC(=O)[C@H](Cc2cccnc2)NC(=O)[C@H](Cc2ccc(O)cc2)NC(=O)[C@H](CC(N)=O)NC(=O)[C@H](Cc2cn(CC(=O)O)c3ccccc23)NC(=O)[C@H](C(C)C)NC(=O)[C@H](Cc2cccc(Cl)c2)N(C)C(=O)[C@H](C(C)C)NC(=O)[C@H](C)NC(=O)CSC[C@@H](C(=O)NCCOCCOCCOCCOCCC(N)=O)NC(=O)[C@H](Cc2ccc(O)cc2)N(C)C(=O)[C@H](Cc2ccccc2)NC(=O)[C@H](CCCNC(=N)N)NC(=O)[C@H](CCCNC(=N)N)NC(=O)[C@H]([C@@H](C)CC)NC1=O [894_0333] ({CH2CO}-AV[NMePhe(3-Cl)]V[Trp(1-CH2COOH)]NY[3Pal]IIRRF[NMeY]C[PEG4]-NH2; thioether N-15)
1 to 100	CC[C@H](C)[C@@H]1NC(=O)[C@H](Cc2ccc(OC)cc2)NC(=O)[C@H](Cc2ccc(O)cc2)NC(=O)[C@H](CC(N)=O)NC(=O)[C@H](Cc2cn(CC(=O)O)c3ccccc23)NC(=O)[C@H](C(C)C)NC(=O)[C@H](Cc2cccc(Cl)c2)N(C)C(=O)[C@H](C(C)C)NC(=O)[C@H](C)NC(=O)CSC[C@@H](C(=O)NCCOCCOCCOCCOCCC(N)=O)NC(=O)[C@H](Cc2ccc(O)cc2)N(C)C(=O)[C@H](Cc2ccncc2)NC(=O)[C@H](CCCNC(=N)N)NC(=O)[C@H](CCCNC(=N)N)NC(=O)[C@H]([C@@H](C)CC)NC1=O [894_0335]
1 to 100	CC[C@H](C)[C@@H]1NC(=O)[C@H](Cc2ccc(OC)cc2)NC(=O)[C@H](Cc2ccc(O)cc2)NC(=O)[C@H](CC(N)=O)NC(=O)[C@H](Cc2cn(CC(=O)O)c3ccccc23)NC(=O)[C@H](C(C)C)NC(=O)[C@H](Cc2cccc(Cl)c2)N(C)C(=O)[C@H](C(C)C)NC(=O)[C@H](C)NC(=O)CSC[C@@H](C(=O)NCCOCCOCCOCCOCCC(N)=O)NC(=O)[C@H](Cc2ccc(O)cc2)N(C)C(=O)[C@H](Cc2cccc(C(=O)O)c2)NC(=O)[C@H](CCCNC(=N)N)NC(=O)[C@H](CCCNC(=N)N)NC(=O)[C@H]([C@@H](C)CC)NC1=O [894_0336]
1 to 100	CC[C@H](C)[C@@H]1NC(=O)[C@H](Cc2cccnc2)NC(=O)[C@H](Cc2ccc(N)nc2)NC(=O)[C@H](CC(N)=O)NC(=O)[C@H](Cc2cn(CC(=O)O)c3ccccc23)NC(=O)[C@H](C(C)C)NC(=O)[C@H](Cc2cccc(Cl)c2)N(C)C(=O)[C@H](C(C)C)NC(=O)[C@H](C)NC(=O)CSC[C@@H](C(=O)NCCOCCOCCOCCOCCC(N)=O)NC(=O)[C@H](Cc2ccc(O)cc2)N(C)C(=O)[C@H](Cc2ccccc2)NC(=O)[C@H](CCCNC(=N)N)NC(=O)[C@H](CCCNC(=N)N)NC(=O)[C@H]([C@@H](C)CC)NC1=O [894_0338] ({CH2CO}-AV[NMePhe(3-Cl)]V[Trp(1-CH2COOH)]N[3Pal(6-NH2)][3Pal]IIRRF[NMeY]C[PEG4]-NH2; thioether N-15)
1 to 100	CC[C@H](C)[C@@H]1NC(=O)[C@H](Cc2cccnc2)NC(=O)[C@H](Cc2ccc(N)nc2)NC(=O)[C@H](CC(N)=O)NC(=O)[C@H](Cc2c[nH]c3ccccc23)NC(=O)[C@H](C(C)C)NC(=O)[C@H](Cc2cccc(Cl)c2)N(C)C(=O)[C@H](C(C)C)NC(=O)[C@H](C)NC(=O)CSC[C@@H](C(=O)NCCOCCOCCOCCOCCC(N)=O)NC(=O)[C@H](Cc2ccc(O)cc2)N(C)C(=O)[C@H](Cc2ccccc2)NC(=O)[C@H](CCCNC(=N)N)NC(=O)[C@H](CCCNC(=N)N)NC(=O)[C@H]([C@@H](C)CC)NC1=O [894_0357] ({CH2CO}-AV[NMePhe(3-Cl)]VWN[3Pal(6-NH2)][3Pal]IIRRF[NMeY]C[PEG4]-NH2; thioether N-15)
1 to 100	CC[C@H](C)[C@@H]1NC(=O)[C@H](Cc2ccc(OCC(=O)O)cc2)NC(=O)[C@H](Cc2ccc(N)nc2)NC(=O)[C@H](CC(N)=O)NC(=O)[C@H](Cc2c[nH]c3ccccc23)NC(=O)[C@H](C(C)C)NC(=O)[C@H](Cc2cccc(Cl)c2)N(C)C(=O)[C@H](C(C)C)NC(=O)[C@H](C)NC(=O)CSC[C@@H](C(=O)NCCOCCOCCOCCOCCC(N)=O)NC(=O)[C@H](Cc2ccc(O)cc2)N(C)C(=O)[C@H](Cc2ccccc2)NC(=O)[C@H](CCCNC(=N)N)NC(=O)[C@H](CCCNC(=N)N)NC(=O)[C@H]([C@@H](C)CC)NC1=O [894_0358] ({CH2CO}-AV[NMePhe(3-Cl)]VWN[3Pal(6-NH2)]Y(Carboxymethyl)IIRRF[NMeY]C[PEG4]-NH2; thioether N-15)
1 to 100	CC[C@H](C)[C@@H]1NC(=O)[C@H](Cc2ccc(OC)cc2)NC(=O)[C@H](Cc2ccc(N)nc2)NC(=O)[C@H](CC(N)=O)NC(=O)[C@H](Cc2c[nH]c3ccccc23)NC(=O)[C@H](C(C)C)NC(=O)[C@H](Cc2cccc(Cl)c2)N(C)C(=O)[C@H](C(C)C)NC(=O)[C@H](C)NC(=O)CSC[C@@H](C(=O)NCCOCCOCCOCCOCCC(N)=O)NC(=O)[C@H](Cc2ccc(O)cc2)N(C)C(=O)[C@H](Cc2cccc(C(=O)O)c2)NC(=O)[C@H](CCCNC(=N)N)NC(=O)[C@H](CCCNC(=N)N)NC(=O)[C@H]([C@@H](C)CC)NC1=O [894_0359] ({CH2CO}-AV[NMePhe(3-Cl)]VWN[3Pal(6-NH2)]Y(Me)IIRR[Phe(3-COOH)][NMeY]C[PEG4]-NH2; thioether N-15)
1 to 100	CC[C@H](C)[C@@H]1NC(=O)[C@H](Cc2cccnc2)NC(=O)[C@H](Cc2ccc(O)cc2)NC(=O)[C@H](CC(N)=O)NC(=O)[C@H](Cc2c[nH]c3ccccc23)NC(=O)[C@H](C(C)C)NC(=O)[C@H](Cc2cccc(Cl)c2)N(C)C(=O)[C@H](C(C)C)NC(=O)[C@H](C)NC(=O)CSC[C@@H](C(=O)NCCOCCOCCOCCOCCC(N)=O)NC(=O)[C@H](Cc2ccc(O)cc2)N(C)C(=O)[C@H](Cc2ccccc2)NC(=O)[C@H](CCC(=O)NCCOCCOCCOCCOCCOCCOCCOCCOC)NC(=O)[C@H](CCCNC(=N)N)NC(=O)[C@H]([C@@H](C)CC)NC1=O [894_0360] ({CH2CO}-AV[NMePhe(3-Cl)]VWNY[3Pal]IIRE(NH(CH2CH2O)8Me)F[NMeY]C[PEG4]-NH2; thioether N-15)
1 to 100	CC[C@H](C)[C@@H]1NC(=O)[C@H](Cc2cccnc2)NC(=O)[C@H](Cc2ccc(O)cc2)NC(=O)[C@H](CC(N)=O)NC(=O)[C@H](Cc2c[nH]c3ccccc23)NC(=O)[C@H](C(C)C)NC(=O)[C@H](Cc2cccc(Cl)c2)N(C)C(=O)[C@H](C(C)C)NC(=O)[C@H](C)NC(=O)CSC[C@@H](C(=O)NCCOCCOCCOCCOCCC(N)=O)NC(=O)[C@H](Cc2ccc(O)cc2)N(C)C(=O)[C@H](Cc2cccc(C(=O)O)c2)NC(=O)[C@H](CCCNC(=N)N)NC(=O)[C@H](CCCNC(=N)N)NC(=O)[C@H]([C@@H](C)CC)NC1=O [894_0361] ({CH2CO}-AV[NMePhe(3-Cl)]VWNY[3Pal]IIRR[Phe(3-COOH)][NMeY]C[PEG4]-NH2; thioether N-15)
1 to 100	CC[C@H](C)[C@@H]1NC(=O)[C@H](Cc2ccc(OCC(=O)O)cc2)NC(=O)[C@H](Cc2ccc(O)cc2)NC(=O)[C@H](CC(N)=O)NC(=O)[C@H](Cc2c[nH]c3ccccc23)NC(=O)[C@H](C(C)C)NC(=O)[C@H](Cc2cccc(Cl)c2)N(C)C(=O)[C@H](C(C)C)NC(=O)[C@H](C)NC(=O)CSC[C@@H](C(=O)NCCOCCOCCOCCOCCC(N)=O)NC(=O)[C@H](Cc2ccc(O)cc2)N(C)C(=O)[C@H](Cc2cccc(C(=O)O)c2)NC(=O)[C@H](CCCNC(=N)N)NC(=O)[C@H](CCCNC(=N)N)NC(=O)[C@H]([C@@H](C)CC)NC1=O [894_0363]
1 to 100	CC[C@H](C)[C@@H]1NC(=O)[C@H](Cc2ccc(OCC(=O)O)cc2)NC(=O)[C@H](Cc2ccc(O)cc2)NC(=O)[C@H](CC(N)=O)NC(=O)[C@H](Cc2c[nH]c3ccccc23)NC(=O)[C@H](C(C)C)NC(=O)[C@H](Cc2cccc(Cl)c2)N(C)C(=O)[C@H](C(C)C)NC(=O)[C@H](C)NC(=O)CSC[C@@H](C(=O)NCCOCCOCCOCCOCCC(N)=O)NC(=O)[C@H](Cc2ccc(O)cc2)N(C)C(=O)[C@H](Cc2ccncc2)NC(=O)[C@H](CCCNC(=N)N)NC(=O)[C@H](CCCNC(=N)N)NC(=O)[C@H]([C@@H](C)CC)NC1=O [894_0364]
